According to patent publication US9918968B2, “Rapamycin analogs targeting proteasome function in the treatment of cancer” (THE BOARD OF REGENTS OF THE UNIVERSITY OF TEXAS SYSTEM, priority 2013, dated 2018):

Experiments:
[1] = system: T1, 20S core with 19S, 11S, tRpt5 or tPA200; assay: Activation of 20S core ChT-L activity by α face ligands (19S, 11S, tRpt5, tPA200); type: biochemical, human; settings: 10 μM derivative
T1 construct: purchased Enzo LifeSciences (20S, 11S); Boston Biochemicals (19S complex)
Method: (§1) Human purified proteasome complexes were purchased from Enzo LifeSciences or Boston Biochemicals (19S complex). BODIPY-casein (Invitrogen/Molecular Probes) was used as a model protein substrate, with increasing fluorescence of BODIPY labeled peptide products of degradation monitored for up to 8 hours at 37° C. The peptidase activity of the enzyme was measured as arbitrary intensity units of the released fluorescent group 7-amino-4-methylcoumarin (AMC) from peptide substrates, as described. The common substrates specific for the three kinds of active sites: succinyl-LeuLeuValTyr-7-amido-4-methylcoumarin (Suc-LLVY-MCA; for the ChT-L activity; Bachem), butoxycarbonyl-LeuArgArg-MCA (BocLRR-MCA; for T-L; Bachem) and carbobenzoxy-LeuLeuGlu-MCA (CbzLLE-MCA; for PGPH; Enzo Life Sciences International, Inc.) were used at 100 μM final concentrations, unless stated otherwise (Gaczynska and Osmulski, 2005). Proteasome substrates, rapamycin, its derivatives, and competing peptides were stocked in DMSO and diluted 100-fold in the reaction mixtures. The Rpt5 and PA200 C-terminal peptides were synthesized in the Departmental Peptide Synthesis Core using the standard SPPS chemistry. To activate the latent 20S proteasome, 0.005% (final concentration) of sodium dodecyl sulfate (SDS) was used. The reactions were carried out in 96 well plates, with 2.3 nM proteasome and other components as indicated dissolved in 50 mM Tris-HCl buffer (pH 8.0) and incubated at 37° C. for up to 1 hour. The fluorescence of products was monitored every 2 minutes with a Fluoroskan Ascent plate reader. Reaction rates were calculated from smoothed linear segment of kinetic curves using OriginPro 8.6 (OriginLabs, Northampton, Mass.). For the determination of an inhibition type, at least six distinct substrate concentrations and two inhibitor concentrations were used. The kinetic parameters of inhibition were analyzed in terms of the Michaelis-Menten formalism using the enzyme kinetic module of SigmaPlot v.12 (Systat Software, Inc, San Jose, Calif.) to perform the respective calculations.
De novo assembly of 19S from subunits is a complex process assisted by chaperones. In vitro, and likely also in cells, the 26S can also be reconstructed from 20S and the already-assembled 19S particle in the presence of ATP (Smith et al., 2005). Enhancement of the peptidase activities of the core proteasome is an established test for efficiency of the in vitro reconstruction. […] In contrast, a pretreatment of 20S with 5 μM rapamycin before adding ATP and 19S totally abrogated the activation, leaving the proteasome almost 40% inhibited instead (FIG. 6).

[2] = biological target: T2, human 20S proteasome, ChT-L peptidase; assay: ChT-L peptidase activity of purified human 20S proteasome (Suc-LLVY-MCA); type: biochemical; settings: latent human 20S proteasome
T2 construct: purchased Enzo LifeSciences
Method: as §1, with “The common substrates specific for the three kinds of active sites: succinyl-LeuLeuValTyr-7-amido-4-methylcoumarin (Suc-LLVY-MCA; for the ChT-L activity; Bachem), butoxycarbonyl-LeuArgArg-MCA (BocLRR-MCA; for T-L; Bachem) and carbobenzoxy-LeuLeuGlu-MCA (CbzLLE-MCA; for PGPH; Enzo Life Sciences International, Inc.) were used at 100 μM final concentrations, unless stated otherwise (Gaczynska and Osmulski, 2005).” left out, “The reactions were carried out in 96 well plates, with 2.3 nM proteasome and other components as indicated dissolved in 50 mM Tris-HCl buffer (pH 8.0) and incubated at 37° C. for up to 1 hour.” left out, “calculations. […]” for “calculations.”
The in vitro assay for testing the ChT-L peptidase activity of the purified human 20S proteasome was performed as described above.

CO[C@@H](C[C@@H]1CC[C@@H](C)[C@](O)(C(=O)C(=O)N2CCCC[C@H]2C(=O)[O-])O1)/C(C)=C/C=C/C=C/[C@@H](C)C[C@@H](C)C(=O)[C@H](OC)[C@H](O)/C(C)=C/[C@@H](C)C(=O)/C=C/[C@H](C)C[C@@H]1CC[C@@H](O)[C@H](OC)C1.[Na+] [seco-rapamycin]
lowering of activation by tRpt5 ([1]; 10 μM tRpt5): about 30%
inhibition of proteasome with or without tPA200 ([1]; presence or absence of 10 μM tPA200): about 40%
IC50 [2]: > 20 µM
